Reference: publication PMC9654711, “Neuroprotective Action of Coumarin Derivatives through Activation of TRKB-CREB-BDNF Pathway and Reduction of Caspase Activity in Neuronal Cells Expressing Pro-Aggregated Tau Protein” (International Journal of Molecular Sciences, 2022)

Columns and labels:
Format in all cases: cell-based, human
p-ERK (T202/Y204) = assay: Immunoblot of p-ERK (T202/Y204)
Description: (§1) ∆K280 tauRD-DsRed SH-SY5Y cells in 6-well plates (5 × 10^5/well) were treated with retinoic acid (10 µM) on day 1, followed by LMDS-1 or -2 (10 µM) and doxycycline (2 µg/mL) addition on day 2 as described. ERK inhibitor U0126 or PI3K inhibitor wortmannin (10 μM) (LC Laboratories, Woburn, MA, USA) was added on day 6. On day 8, the cells were collected for BDNF, BCL2, BAX and total/phosphorylated TRKB, ERK, AKT, CREB protein analyses as described.
(§2) ∆K280 tauRD-DsRed SH-SY5Y cells were lysed in buffer containing 50 mM Tris-HCl (pH 8.0), 150 mM NaCl, 1 mM EDTA (pH 8.0), 1 mM EGTA (pH 8.0), 0.1% SDS, 0.5% sodium deoxycholate, 1% Triton X-100 and protease (Sigma-Aldrich)/phosphatase (Roche, Basel, Switzerland) inhibitor cocktails. After two sonications with an interval of 30 min on ice, cell lysates were collected by centrifugation at 14,000× g for 30 min at 4 °C. Protein concentrations were determined using a Bradford assay (Bio-Rad, Hercules, CA, USA). Protein samples (25 µg) were separated by 10–12% SDS-PAGE and transferred to polyvinylidene difluoride (PVDF) membranes (Sigma-Aldrich). After blocking for 2 h with 10% skimmed milk or 5% BSA in 0.1% Tween 20 in Tris-buffered saline (TBST), the membrane was incubated with primary antibody against BDNF (1:500; Santa Cruz, Santa Cruz, CA, USA), BCL2 (1:500; BioVision), BAX (1:500; BioVision), TRKB (1:1000; Cell Signaling, Danvers, MA, USA), p-TRKB (Y516) (1:1000; Cell Signaling), p-TRKB (Y817) (1:1000; Millipore, Billerica, MA, USA), ERK (1:1000; Cell Signaling), p-ERK (T202/Y204) (1:500; Cell Signaling), AKT (1:1000; Cell Signaling), p-AKT (S473) (1:1000; Cell Signaling), CREB (1:1000; Santa Cruz), p-CREB (S133) (1:1000; Millipore), JNK (1:1000; Cell Signaling), p-JNK (T183/Y185) (1:1000; Cell Signaling) or loading control glyceraldehyde-3-phosphate dehydrogenase (GAPDH) (1:1000; MDBio, Taipei, Taiwan). After three washes with TBST, the immune complexes were detected using horseradish peroxidase-conjugated goat anti-mouse or goat anti-rabbit secondary IgG antibody (1:5000, GeneTex, Irvine, CA, USA) and enhanced chemiluminescence substrates luminol and peroxide (Millipore). The primary and secondary antibodies used were diluted with TBST. The chemiluminescent detection was performed on ImageQuant™ LAS 4000mini (GE Healthcare).

p-CREB (S133) = assay: Immunoblot of p-CREB (S133)
Description: as §1, §2

p-AKT (S473) = assay: Immunoblot of p-AKT (S473)
Description: as §1, §2

m-BDNF (13 kDa) = assay: Immunoblot of m-BDNF; settings: 10 µM; induced untreated 69%
Description: as §1
∆K280 tauRD-DsRed SH-SY5Y cells were lysed in buffer containing 50 mM Tris-HCl (pH 8.0), 150 mM NaCl, 1 mM EDTA (pH 8.0), 1 mM EGTA (pH 8.0), 0.1% SDS, 0.5% sodium deoxycholate, 1% Triton X-100 and protease (Sigma-Aldrich)/phosphatase (Roche, Basel, Switzerland) inhibitor cocktails. After two sonications with an interval of 30 min on ice, cell lysates were collected by centrifugation at 14,000× g for 30 min at 4 °C. Protein concentrations were determined using a Bradford assay (Bio-Rad, Hercules, CA, USA). Protein samples (25 µg) were separated by 10–12% SDS-PAGE and transferred to polyvinylidene difluoride (PVDF) membranes (Sigma-Aldrich). […] After three washes with TBST, the immune complexes were detected using horseradish peroxidase-conjugated goat anti-mouse or goat anti-rabbit secondary IgG antibody (1:5000, GeneTex, Irvine, CA, USA) and enhanced chemiluminescence substrates luminol and peroxide (Millipore). […]

[1] = 10 µM, induced untreated 78%, Figure 5C
[2] = BDNF 100 ng/mL, LMDS-1/2 10 μM, induced untreated 72%, Figure 6B

| SMILES | p-ERK level (p-ERK (T202/Y204); 10 µM plus U0126 10 μM) | p-ERK level (p-ERK (T202/Y204); 10 µM, induced untreated 76%) | p-CREB level (p-CREB (S133); [1]) | p-CREB level (p-CREB (S133); [2]) | p-AKT level (p-AKT (S473); 10 µM plus wortmannin 10 μM) | p-AKT level (p-AKT (S473); 10 µM, induced untreated 72%) | m-BDNF level (m-BDNF (13 kDa)) |
| --- | --- | --- | --- | --- | --- | --- | --- |
| O=C(c1ccccc1)c1cc2ccc(O)cc2oc1=O [LMDS-2] | 65–66% | 101–102% | 105–108% | 90–95% | 62–64% | 96–100% | 97–102% |
| CCOc1ccc2cc(C(=O)c3ccccc3)c(=O)oc2c1 [LMDS-1] | 65–66% | 101–102% | 105–108% | 90–95% | 62–64% | 96–100% | 97–102% |
